Data from US12599672B2, “KRAS proteolysis targeting chimeras” (PAQ Therapeutics Inc., priority 2023, dated 2026).

Experiments:
Assay type in all cases: cell-based
KRAS = molecular target: T1, KRAS (Homo sapiens, UniProt P01116); assay: KRASamp MSD assay; settings: KE39 (KRAS amplified) cells, treated with test compounds for 24 hr, MSD readout of KRAS degradation
T1 construct: endogenous in cells; host or cells: KE39 (KRAS amplified) cells
Summary of the method: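 Degradation DC50 derived by curve fitting, with KRAS levels quantified by MSD electrochemiluminescence (capture/detection antibodies, recombinant WT KRAS standard). Lysates prepared from KE39 cells (KRAS amplified) exposed to test compounds for 24 hr.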

KRAS G12D = molecular target: T2, KRAS G12D (Homo sapiens, UniProt P01116, G12D); assay: KRAS G12D HiBit assay; settings: AsPc-1-KRAS (G12D)-HiBit-KI cell, compound treatment for 24 hours, absolute DC50
T2 construct: AsPc-1-KRAS (G12D)-HiBit-KI cell (Pharmaron); host or cells: AsPc-1-KRAS (G12D)-HiBit-KI cells (HiBiT knock-in at the endogenous KRAS locus)
Summary of the method: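 HiBiT luminescence, detected by adding lytic buffer, substrate and LgBiT protein, served as the KRAS G12D read-out. Compounds, serially diluted 3-fold over 10 points from 0.3 mM DMSO stock, were on cells for 24 h; percent inhibition normalized to cells given 0.1% DMSO only.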

KRAS G12V = molecular target: T3, KRAS G12V (Homo sapiens, UniProt P01116, G12V); assay: KRAS G12V HiBit assay; settings: SW620-KRAS (G12V)-HiBit-KI cells, compound treatment for 24 hours, class symbols
T3 construct: SW620-KRAS (G12V)-HiBit-KI cell (Pharmaron); host or cells: SW620-KRAS (G12V)-HiBit-KI cells (HiBiT knock-in at the endogenous KRAS locus)
Summary of the method: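 Luminescence from lytic Nano-Glo HiBiT detection with LgBiT read KRAS G12V levels after 24 h compound exposure. Dilutions were 10-point, 3-fold, from a 0.3 mM DMSO stock. Degradation activity was normalised to cells given 0.1% DMSO alone.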

T1 sequence (P01116 1-188 isoform P01116-2): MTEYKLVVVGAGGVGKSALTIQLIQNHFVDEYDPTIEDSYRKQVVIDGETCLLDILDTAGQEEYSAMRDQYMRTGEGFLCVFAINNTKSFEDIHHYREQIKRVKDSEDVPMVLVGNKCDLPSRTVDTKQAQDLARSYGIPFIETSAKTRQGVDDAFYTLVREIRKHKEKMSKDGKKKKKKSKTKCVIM
T3 sequence (P01116 1-188 isoform P01116-2 G12V): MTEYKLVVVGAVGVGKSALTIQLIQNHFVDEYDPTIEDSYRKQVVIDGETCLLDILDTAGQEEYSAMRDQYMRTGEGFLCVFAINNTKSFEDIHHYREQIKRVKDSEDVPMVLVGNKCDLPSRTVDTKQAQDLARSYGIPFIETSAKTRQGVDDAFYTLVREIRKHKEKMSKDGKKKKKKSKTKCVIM
T2 sequence (P01116 1-188 isoform P01116-2 G12D): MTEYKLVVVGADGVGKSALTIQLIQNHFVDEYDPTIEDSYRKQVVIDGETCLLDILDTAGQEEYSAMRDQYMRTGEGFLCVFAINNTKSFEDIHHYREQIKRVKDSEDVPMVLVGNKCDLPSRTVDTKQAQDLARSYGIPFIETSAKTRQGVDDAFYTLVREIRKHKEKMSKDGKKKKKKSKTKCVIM

SMILES | DC50 (KRAS) [nM] | DC50 (KRAS G12D; class symbols) [nM] | DC50 (KRAS G12V) [nM] | DC50 (KRAS G12D; numeric bounds given in place of class symbols) [nM]
CCc1c(F)ccc2cc(O)cc(-c3ncc4c(N5CC[C@@H](O)C5)nc(OC[C@@]56CCCN5[C@H](COC(=O)N5CCC7(CC5)CC(N5CCC(c8ccc9c(c8)n(C)c(=O)n9C8CCC(=O)NC8=O)CC5)C7)CC6)nc4c3F)c12 (stereo partly drawn) [Compound 350, ((3S,7aS)-7a-(((7-(8-ethyl-7-fluoro-3-hydroxynaphthalen-1-yl)-8-fluoro-4-((R)-3-hydroxypyrrolidin-1-yl)pyrido[4,3-d]pyrimidin-2-yl)oxy)methyl)hexahydro-1H-pyrrolizin-3-yl)methyl 2-(4-(1-(2,6-dioxopiperidin-3-yl)-3-methyl-2-oxo-2,3-dihydro-1H-benzo[d]imidazol-5-yl)piperidin-1-yl)-7-azaspiro[3.5]nonane-7-carboxylate] | 1 to 10 | < 100 | < 10 | 
CCc1c(F)ccc2cc(O)cc(-c3ncc4c(N5CCC(F)(F)CC5)nc(OC[C@@]56CCCN5[C@H](COC(=O)N5CCC7(CC5)CC(N5CCC(c8ccc9c(c8)n(C)c(=O)n9C8CCC(=O)NC8=O)CC5)C7)CC6)nc4c3F)c12 (stereo partly drawn) [Compound 357, ((3S,7aS)-7a-(((4-(4,4-difluoropiperidin-1-yl)-7-(8-ethyl-7-fluoro-3-hydroxynaphthalen-1-yl)-8-fluoropyrido[4,3-d]pyrimidin-2-yl)oxy)methyl)hexahydro-1H-pyrrolizin-3-yl)methyl 2-(4-(1-(2,6-dioxopiperidin-3-yl)-3-methyl-2-oxo-2,3-dihydro-1H-benzo[d]imidazol-5-yl)piperidin-1-yl)-7-azaspiro[3.5]nonane-7-carboxylate] | 1 to 10 |  | > 100 | > 100
CCc1c(F)ccc2cc(O)cc(-c3ncc4c(N5CCCCC5)nc(OC[C@@]56CCCN5[C@H](COC(=O)N5CCC7(CC5)CC(N5CCC(c8ccc9c(c8)n(C)c(=O)n9C8CCC(=O)NC8=O)CC5)C7)CC6)nc4c3F)c12 (stereo partly drawn) [Compound 367, ((3S,7aS)-7a-(((7-(8-ethyl-7-fluoro-3-hydroxynaphthalen-1-yl)-8-fluoro-4-(piperidin-1-yl)pyrido[4,3-d]pyrimidin-2-yl)oxy)methyl)hexahydro-1H-pyrrolizin-3-yl)methyl 2-(4-(1-(2,6-dioxopiperidin-3-yl)-3-methyl-2-oxo-2,3-dihydro-1H-benzo[d]imidazol-5-yl)piperidin-1-yl)-7-azaspiro[3.5]nonane-7-carboxylate] | < 1 | < 100 | < 10 | 
CCc1c(F)ccc2cc(O)cc(-c3ncc4c(N5CCC[C@@](C)(O)C5)nc(OC[C@@]56CCCN5[C@H](COC(=O)N5CCC(OCCC#Cc7cccc8c7n(C)c(=O)n8C7CCC(=O)NC7=O)CC5)CC6)nc4c3F)c12 (stereo partly drawn) [Compound 370, ((3S,7aS)-7a-(((7-(8-Ethyl-7-fluoro-3-hydroxynaphthalen-1-yl)-8-fluoro-4-((R)-3-hydroxy-3-methylpiperidin-1-yl)pyrido[4,3-d]pyrimidin-2-yl)oxy)methyl)hexahydro-1H-pyrrolizin-3-yl)methyl4-((4-(1-(2,6-dioxopiperidin-3-yl)-3-methyl-2-oxo-2,3-dihydro-1H-benzo[d]imidazol-4-yl)but-3-yn-1-yl)oxy)piperidine-1-carboxylate] | 1 to 10 | < 100 | < 10 | 
CCc1c(F)ccc2cc(O)cc(-c3ncc4c(N5CCC[C@@](C)(O)C5)nc(OC[C@@]56CCCN5[C@H](COC(=O)N5CCC(OCCC#Cc7ccc8c(c7)n(C)c(=O)n8C7CCC(=O)NC7=O)CC5)CC6)nc4c3F)c12 (stereo partly drawn) [Compound 371, ((3S,7aS)-7a-(((7-(8-ethyl-7-fluoro-3-hydroxynaphthalen-1-yl)-8-fluoro-4-((R)-3-hydroxy-3-methylpiperidin-1-yl)pyrido[4,3-d]pyrimidin-2-yl)oxy)methyl)hexahydro-1H-pyrrolizin-3-yl)methyl 4-((4-(1-(2,6-dioxopiperidin-3-yl)-3-methyl-2-oxo-2,3-dihydro-1H-benzo[d]imidazol-5-yl)but-3-yn-1-yl)oxy)piperidine-1-carboxylate] | 1 to 10 | < 100 | < 10 | 

The remaining lines, values ahead:

DC50 (KRAS) [nM] | DC50 (KRAS G12D; class symbols) [nM] | DC50 (KRAS G12V) [nM] | DC50 (KRAS G12D; numeric bounds given in place of class symbols) [nM] | SMILES
< 1 | < 100 | < 10 |  | CCc1c(F)ccc2cc(O)cc(-c3ccc4c(N5CCC[C@@](C)(O)C5)nc(OC[C@@]56CCCN5[C@H](COC(=O)N5CCC7(CC5)CC(N5CCC(c8ccc9c(c8)n(C)c(=O)n9C8CCC(=O)NC8=O)CC5)C7)CC6)nc4c3F)c12 (stereo partly drawn) [Compound 355, ((3S,7aS)-7a-(((7-(8-ethyl-7-fluoro-3-hydroxynaphthalen-1-yl)-8-fluoro-4-((R)-3-hydroxy-3-methylpiperidin-1-yl)quinazolin-2-yl)oxy)methyl)hexahydro-1H-pyrrolizin-3-yl)methyl 2-(4-(1-(2,6-dioxopiperidin-3-yl)-3-methyl-2-oxo-2,3-dihydro-1H-benzo[d]imidazol-5-yl)piperidin-1-yl)-7-azaspiro[3.5]nonane-7-carboxylate]
1 to 10 | < 100 | < 10 |  | C#Cc1c(F)ccc2cc(O)cc(-c3ncc4c(N5CCC[C@@](C)(O)C5)nc(OC[C@@]56CCCN5[C@H](COC(=O)N5CCC(OCCC#Cc7ccc8c(c7)n(C)c(=O)n8C7CCC(=O)NC7=O)CC5)CC6)nc4c3F)c12 (stereo partly drawn) [Compound 369, ((3S,7aS)-7a-(((7-(8-ethynyl-7-fluoro-3-hydroxynaphthalen-1-yl)-8-fluoro-4-((R)-3-hydroxy-3-methylpiperidin-1-yl)pyrido[4,3-d]pyrimidin-2-yl)oxy)methyl)hexahydro-1H-pyrrolizin-3-yl)methyl 4-((4-(1-(2,6-dioxopiperidin-3-yl)-3-methyl-2-oxo-2,3-dihydro-1H-benzo[d]imidazol-5-yl)but-3-yn-1-yl)oxy)piperidine-1-carboxylate]
1 to 10 | < 100 | 10 to 100 |  | C#Cc1c(F)ccc2cc(O)cc(-c3ncc4c(N5CCC[C@@](C)(O)C5)nc(OC[C@@]56CCCN5[C@H](COC(=O)N5CCC(OCC#Cc7cccc8c7n(C)c(=O)n8C7CCC(=O)NC7=O)CC5)CC6)nc4c3F)c12 (stereo partly drawn) [Compound 372, ((3S,7aS)-7a-(((7-(8-ethynyl-7-fluoro-3-hydroxynaphthalen-1-yl)-8-fluoro-4-((R)-3-hydroxy-3-methylpiperidin-1-yl)pyrido[4,3-d]pyrimidin-2-yl)oxy)methyl)hexahydro-1H-pyrrolizin-3-yl)methyl 4-((3-(1-(2,6-dioxopiperidin-3-yl)-3-methyl-2-oxo-2,3-dihydro-1H-benzo[d]imidazol-4-yl)prop-2-yn-1-yl)oxy)piperidine-1-carboxylate]
1 to 10 | < 100 | < 10 |  | C#Cc1c(F)ccc2cc(O)cc(-c3ncc4c(N5CCC[C@@](C)(O)C5)nc(OC[C@@]56CCCN5[C@H](COC(=O)N5CCC(OCC#Cc7ccc8c(c7)n(C)c(=O)n8C7CCC(=O)NC7=O)CC5)CC6)nc4c3F)c12 (stereo partly drawn) [Compound 373, ((3S,7aS)-7a-(((7-(8-ethynyl-7-fluoro-3-hydroxynaphthalen-1-yl)-8-fluoro-4-((R)-3-hydroxy-3-methylpiperidin-1-yl)pyrido[4,3-d]pyrimidin-2-yl)oxy)methyl)hexahydro-1H-pyrrolizin-3-yl)methyl 4-((3-(1-(2,6-dioxopiperidin-3-yl)-3-methyl-2-oxo-2,3-dihydro-1H-benzo[d]imidazol-5-yl)prop-2-yn-1-yl)oxy)piperidine-1-carboxylate]
1 to 10 | 100 to 300 | 10 to 100 |  | C#Cc1c(F)ccc2cc(O)cc(-c3ncc4c(N5CCC[C@@](C)(O)C5)nc(OC[C@@]56CCCN5[C@H](COC(=O)N5CCC(CC#Cc7cccc8c7n(C)c(=O)n8C7CCC(=O)NC7=O)CC5)CC6)nc4c3F)c12 (stereo partly drawn) [Compound 374, ((3S,7aS)-7a-(((7-(8-ethynyl-7-fluoro-3-hydroxynaphthalen-1-yl)-8-fluoro-4-((R)-3-hydroxy-3-methylpiperidin-1-yl)pyrido[4,3-d]pyrimidin-2-yl)oxy)methyl)hexahydro-1H-pyrrolizin-3-yl)methyl 4-(3-(1-(2,6-dioxopiperidin-3-yl)-3-methyl-2-oxo-2,3-dihydro-1H-benzo[d]imidazol-4-yl)prop-2-yn-1-yl)piperidine-1-carboxylate]
1 to 10 | < 100 | < 10 |  | C#Cc1c(F)ccc2cc(O)cc(-c3ncc4c(N5CCC[C@@](C)(O)C5)nc(OC[C@@]56CCCN5[C@H](COC(=O)N5CCC(CC#Cc7ccc8c(c7)n(C)c(=O)n8C7CCC(=O)NC7=O)CC5)CC6)nc4c3F)c12 (stereo partly drawn) [Compound 375, ((3S,7aS)-7a-(((7-(8-ethynyl-7-fluoro-3-hydroxynaphthalen-1-yl)-8-fluoro-4-((R)-3-hydroxy-3-methylpiperidin-1-yl)pyrido[4,3-d]pyrimidin-2-yl)oxy)methyl)hexahydro-1H-pyrrolizin-3-yl)methyl 4-(3-(1-(2,6-dioxopiperidin-3-yl)-3-methyl-2-oxo-2,3-dihydro-1H-benzo[d]imidazol-5-yl)prop-2-yn-1-yl)piperidine-1-carboxylate]
